The record followed here is patent publication US10709692B2, “Isoxazolidine derived inhibitors of receptor interacting protein kinase 1 (RIPK1)” (Denali Therapeutics Inc., priority 2015, dated 2020).

“And” between values parts separate entries of the source, which are not always exact repeats. Identical values can stand only once.

This experiment concerns the target T1, receptor interacting protein kinase 1 (GST-hRIPK1 (8-327)) (Homo sapiens, UniProt Q13546).
T1 construct: GST-hRIPK1 (8-327) enzyme was generated by Proteros GmbH by Baculovirus expression system
T1 sequence (Q13546 8-327): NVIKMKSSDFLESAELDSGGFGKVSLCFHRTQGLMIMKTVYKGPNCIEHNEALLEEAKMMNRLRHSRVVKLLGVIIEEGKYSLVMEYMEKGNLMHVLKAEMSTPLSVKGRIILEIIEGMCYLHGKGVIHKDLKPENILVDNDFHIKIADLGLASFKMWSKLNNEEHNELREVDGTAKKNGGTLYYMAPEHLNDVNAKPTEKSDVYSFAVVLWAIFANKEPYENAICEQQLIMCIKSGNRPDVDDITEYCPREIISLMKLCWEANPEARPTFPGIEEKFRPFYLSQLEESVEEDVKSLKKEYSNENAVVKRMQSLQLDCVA
Description: Fluorescent Polarization Binding (FP Binding) assay. The note with it: 10 nM GST-hRIPK1 (8-327), 5 nM fluorescent-labeled ligand, 30 min at RT. Here is the method: Fluorescent Polarization Binding (FP Binding) assay (Berger S. B. et al. (2015) Cell Death Discovery, 1: 15009; Maki J. L. et al. (2012) Anal Biochem., 427(2): 164-174) was performed in polystyrene low volume 384-well black plate, at Room Temperature (RT) in a final volume of 10.1 μl/well using 10 nM of GST-hRIPK1 (8-327) enzyme and 5 nM of fluorescent-labeled ligand (14-(2-{[3-({2-{[4-(cyanomethyl)phenyl]amino}-6-[(5-cyclopropyl-1H-pyrazol-3-yl)amino]-4-pyrimidinyl}amino) propyl]amino}-2-oxoethyl)-16,16,18,18-tetramethyl-6,7,7a,8a,9,10,16,18-octahydrobenzo[2″3″]indolizino[8″, 0.7″:5′,6′]pyrano[3′,2′:3,4]pyrido[1,2-a]indol-5-ium-2-sulfonate.
Test compounds were serially diluted in DMSO at 100 fold final concentrations in the assay (1% DMSO final). In each well of a 384-well Plate were dispensed 0.1 μL of compound solution (or DMSO for controls) followed by 5 μL of GST-hRIPK1 (8-327) at twice the final concentrations in assay-buffer (50 mM HEPES pH 7.5, 10 mM NaCl, 50 mM MgCl2, 0.02% CHAPS, 0.5 mM DTT and 0.01% Pluronic F127). For negative control the enzyme addition was replaced by assay buffer only.
After addition of 5 μL of fluorescent-labeled ligand at twice the final concentrations in assay buffer, the plate was incubated at RT for 30 min. At the end, the binding was measured as FP value with the Envision (PerkinElmer) plate reader using filter for an excitation λ=531 nm FP and an emission λ=595 nm FP (S & P-pol).
Test compound inhibition was expressed as percent inhibition of internal assay controls. For concentration response curves, normalized data is fit and IC50 determined using XL-fit (IDBS) for Excel. IC50 were averaged to determine a mean value, for a minimum of two independent experiments.
Receptor interacting protein kinase 1 activity of exemplary compounds was determined according to the above general procedures.
Receptor interacting protein kinase 1 activity of certain compounds was determined according to the above general procedures.
A word on the IC50: it is the concentration that gives 50% inhibition. Higher therefore signals weaker potency. Regarding `O=C(N1OCC[C@H]1c1ccc(F)nc1)C1(C2CC2)CC1` [Compound 159, 5-[(3S)-2-(1-cyclopropylcyclopro-panecarbonyl)-1,2-oxazolidin-3-yl]-2-fluoropyridine], the IC50 is < 1000 nM.

For `CC(C)(C)C(=O)N1OCC[C@H]1c1cccc2ccnn12` [Compound 140, 2,2-dimethyl-1-[(3S)-3-{pyrazolo[1,5-a]pyridin-7-yl}-1,2-oxazolidin-2-yl]propan-1-one], the IC50 was < 1000 nM.

Take `CC(C)C(=O)N1OCC[C@@H]1c1ccc(F)cc1` [Compound 65, 1-[(3R)-3-(4-Fluorophenyl)-1,2-oxazolidin-2-yl]-2-methylpropan-1-one]: the IC50 was > 10000 nM.

As to `O=C(N1OCC[C@H]1c1ccc(F)cc1)C1(F)CC1` [Compound 34, (3S)-2-(1-Fluorocyclopropane-carbonyl)-3-(4-fluorophenyl)-1,2-oxazolidine], the IC50 was < 1000 nM.

As to `CC(OC(F)(F)F)C(=O)N1OCC[C@H]1c1ccc(F)nc1` (single isomer, unassigned) [Compound 184], the IC50 is < 1000 nM.

Consider `CC(C)(C)C(=O)N1OCC[C@H]1c1ccc(C(F)(F)F)nc1` [Compound 120], for which the IC50 was < 1000 nM.

Regarding `CC(C)(C(=O)N1OCC[C@H]1c1ccc(F)nc1)C(F)F` [Compound 169, 3,3-difluoro-1-[(3S)-3-(6-fluoropyridin-3-yl)-1,2-oxazolidin-2-yl]-2,2-dimethylpropan-1-one], the IC50 was < 1000 nM.

Take `N#Cc1ccc([C@@H]2CCON2C(=O)C23C4C5C6C4C2C6C53)cc1` (stereo partly drawn) [Compound 238, 4-[(3S)-2-(cubane-1-carbonyl)-1,2-oxazolidin-3-yl]benzonitrile]: the IC50 was < 1000 nM.

For the compound `CC1(C(=O)N2OCC[C@H]2c2ccc(F)nc2)CC1(F)F` (single isomer, unassigned) [Compound 113], the concentration for half-maximal inhibition (IC50) was < 1000 nM.

In the case of `CC(C)(C)C(=O)N1OCC[C@H]1c1ccc(C#N)nc1` [Compound 143, 5-[(3S)-2-(2,2-dimethylpropanoyl)-1,2-oxazolidin-3-yl]pyridine-2-carbonitrile], the IC50 is < 1000 nM.

On to `CC(C)(C)C(=O)N1OCC[C@H]1c1cccnc1F` [Compound 66, 1-[(3S)-3-(2-Fluoropyridin-3-yl)-1,2-oxazolidin-2-yl]-2,2-dimethylpropan-1-one], for which the IC50 was < 1000 nM.

On to `CC(C)(C)C(=O)N1OCC[C@@H]1c1ccc(F)nc1` (single isomer, unassigned) [Compound 62], for which the IC50 fell in the range of 1000 to 10000 nM.

As to `CC(C)(C(=O)N1OCC[C@H]1c1cc(F)cc(C#N)c1)C(F)F` [Compound 226, 3-[(3S)-2-(3,3-difluoro-2,2-dimethylpropanoyl)-1,2-oxazolidin-3-yl]-5-fluorobenzonitrile], the IC50 was < 1000 nM.

As to `COCC1(C(=O)N2OCC[C@H]2c2ccccc2)CC1` [Compound 76, (3S)-2-[1-(Methoxymethyl)cyclo-propanecarbonyl]-3-phenyl-1,2-oxazolidine], the IC50 lay within 1000 to 10000 nM.

With `CC(C)(C#N)C(=O)N1OCC[C@H]1c1ccc(F)cc1` [Compound 182, 3-[(3S)-3-(4-fluorophenyl)-1,2-oxazolidin-2-yl]-2,2-dimethyl-3-oxopropanenitrile], the IC50 is < 1000 nM.

Regarding `CC(C)(C)C(=O)N1OCC[C@H]1c1ccc([N+](=O)[O-])nc1` [Compound 223, 2,2-dimethyl-1-[(3S)-3-(6-nitropyridin-3-yl)-1,2-oxazolidin-2-yl]propan-1-one], the IC50 was < 1000 nM.

On to `Cc1ncc([C@@H]2CCON2C(=O)C(C)C2CC2)cc1F` (single isomer, unassigned) [Compound 217], for which the IC50 is < 1000 nM.

Take `Cn1cc([C@@H]2CCON2C(=O)C(C)(C)C)cc1C#N` [Compound 205, 4-[(3S)-2-(2,2-dimethylpropanoyl)-1,2-oxazolidin-3-yl]-1-methyl-1 h-pyrrole-2-carbonitrile]: the IC50 was < 1000 nM.

For the compound `CC(C)(C)C(=O)N1OCC[C@H]1c1ccc(C#N)c(F)c1` [Compound 151, 4-[(3S)-2-(2,2-dimethylpropanoyl)-1,2-oxazolidin-3-yl]-2-fluorobenzonitrile], the IC50 is < 1000 nM.

On to `N#Cc1ccc([C@@H]2CCON2C(=O)C2(C3CC3)CC2)cc1` [Compound 158, 4-[(3S)-2-(1-cyclopropylcyclopro-panecarbonyl)-1,2-oxazolidin-3-yl]benzonitrile], for which the IC50 is < 1000 nM.

As for `CC1(C(=O)N2OCC[C@H]2c2ccc(F)nc2)CCOC1` (single isomer, unassigned) [Compound 141], the IC50 is < 1000 nM.

On to `Cc1ncc([C@@H]2CCON2C(=O)C(C)(C)C)cn1` [Compound 125, 2,2-dimethyl-1-[(3S)-3-(2-methylpyrimidin-5-yl)-1,2-oxazolidin-2-yl]propan-1-one], for which the IC50 was < 1000 nM.

Compound `CC(C)(C)C(=O)N1OCC[C@@H]1c1c(F)cccc1F` [Compound 67, 1-[(3R)-3-(2,6-Difluorophenyl)-1,2-oxazolidin-2-yl]-2,2-dimethylpropan-1-one] gave an IC50 of 1000 to 10000 nM.

For `CC(OC(F)(F)F)C(=O)N1OCC[C@H]1c1ccc(F)cc1` (single isomer, unassigned) [Compound 183], the IC50 is < 1000 nM.

In the case of `Cc1ncc([C@@H]2CCON2C(=O)C(C)C2CC2)cc1F` (single isomer, unassigned) [Compound 218], the IC50 was < 1000 nM.

For the compound `C[C@@]1(C(=O)N2OCC[C@H]2c2ccc(F)cc2)CCC(=O)N1` [Compound 191, (5S)-5-[(3S)-3-(4-fluorophenyl)-1,2-oxazolidine-2-carbonyl]-5-methylpyrrolidin-2-one], the half-maximal inhibitory concentration (IC50) is < 1000 nM.

`CC1(S(=O)(=O)N2OCC[C@H]2c2ccc(F)nc2)CC1` [Compound 93, 2-fluoro-5-[(3S)-2-[(1-methylcyclopropyl)sulfonyl]-1,2-oxazolidin-3-yl]pyridine] had an IC50 of 1000 to 10000 nM.

Regarding `N#Cc1ccc([C@@H]2CCON2C(=O)C2(C(F)F)CCC2)cc1` [Compound 229, 4-[(3S)-2-[1-(difluoromethyl)cyclo-butanecarbonyl]-1,2-oxazolidin-3-yl]benzonitrile], the IC50 is < 1000 nM.

Consider `CC(C)(CC#N)C(=O)N1OCC[C@H]1c1ccc(C#N)cc1` [Compound 181, 4-[(3S)-2-(3-cyano-2,2-dimethylpropanoyl)-1,2-oxazolidin-3-yl]benzonitrile], for which the IC50 was < 1000 nM.

Consider `CC(C)(C)C(=O)N1OCC[C@H]1c1ccnc(N)c1` [Compound 149, 1-[(3S)-3-(2-aminopyridin-4-yl)-1,2-oxazolidin-2-yl]-2,2-dimethylpropan-1-one], for which the IC50 is 1000 to 10000 nM.

`CC(C)(C)C(=O)N1OCC[C@H]1c1cc(C#N)ccn1` [Compound 192, 2-[(3S)-2-(2,2-dimethylpropanoyl)-1,2-oxazolidin-3-yl]pyridine-4-carbonitrile]: the IC50 was < 1000 nM.

As for `CC(C)(C(=O)N1OCC[C@H]1c1ccc(F)cc1)C1CC1` [Compound 193, 2-cyclopropyl-1-[(3S)-3-(4-fluorophenyl)-1,2-oxazolidin-2-yl]-2-methylpropan-1-one], the IC50 was < 1000 nM and 5 nM.

For `O=C(N1OCC[C@H]1c1ccc(F)nc1)C1(C(F)F)CCC1` [Compound 168, 5-[(3S)-2-[1-(difluoromethyl)cyclo-butanecarbonyl]-1,2-oxazolidin-3-yl]-2-fluoropyridine], the IC50 is < 1000 nM.

With `CC(C(=O)N1OCC[C@H]1c1ccc(F)cc1)C(F)F` (single isomer, unassigned) [Compound 188], the IC50 was < 1000 nM.

Take `CC(C)(C)OC(=O)N1OCCC1c1ccc(Cl)cc1` (stereo not shown) [Compound 49, tert-Butyl 3-(4-chlorophenyl)-1,2-oxazolidine-2-carboxylate]: the IC50 was < 1000 nM.

As for `CC1(C(=O)N2OCC[C@H]2c2ccc(F)cc2)CCCOC1` (single isomer, unassigned) [Compound 36], the IC50 is < 1000 nM.

On to `CC(C)(C)C(=O)N1OCC[C@H]1c1cc2ccccn2n1` [Compound 124, 2,2-dimethyl-1-[(3S)-3-{pyrazolo[1,5-A]pyridin-2-yl}-1,2-oxazolidin-2-yl]propan-1-one], for which the IC50 is < 1000 nM.
